Patent publication US20260109707A1, “HETEROBIFUNCTIONAL COMPOUNDS AND METHODS OF TREATING DISEASE” (Halda Therapeutics OpCo. Inc., priority 2022, published 2026)

Experiments:
[1] = test system: T-Rex 293 cell line SC3 cells having increased expression of androgen receptor protein due to exposure to doxycycline; assay: Cellular growth inhibition assay, T-Rex 293 SC3 cells with doxycycline (CellTiter-Glo, 72 hours); type: cell-based; conditions: 72 h, T-Rex 293 SC3 cells with increased androgen receptor expression due to doxycycline (10 ng/mL)
Outline: (§1)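 Doxycycline (10 ng/mL) was either included or omitted to toggle wild-type androgen receptor expression in SC3 cells, a T-Rex 293 clone, grown in stripped-serum, phenol red-free medium. After 72 hours with compound, viable cells were quantified by CellTiter-Glo 2.0.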

[2] = test system: T-Rex 293 cell line SC3 cells lacking increased expression of androgen receptor protein; assay: Cellular growth inhibition assay, T-Rex 293 SC3 cells without doxycycline (CellTiter-Glo, 72 hours); type: cell-based; conditions: 72 h, T-Rex 293 cell line SC3 cells not exposed to doxycycline (lacking increased androgen receptor expression)
Outline: as §1

androgen receptor = target: T1, androgen receptor (Homo sapiens, UniProt P10275); assay: Assay for binding affinity to androgen receptor ([3H]methyltrienolone radioligand, cell cytosol); conditions: binding to the androgen receptor, Table 3
T1 sequence (P10275 1-920 T878A): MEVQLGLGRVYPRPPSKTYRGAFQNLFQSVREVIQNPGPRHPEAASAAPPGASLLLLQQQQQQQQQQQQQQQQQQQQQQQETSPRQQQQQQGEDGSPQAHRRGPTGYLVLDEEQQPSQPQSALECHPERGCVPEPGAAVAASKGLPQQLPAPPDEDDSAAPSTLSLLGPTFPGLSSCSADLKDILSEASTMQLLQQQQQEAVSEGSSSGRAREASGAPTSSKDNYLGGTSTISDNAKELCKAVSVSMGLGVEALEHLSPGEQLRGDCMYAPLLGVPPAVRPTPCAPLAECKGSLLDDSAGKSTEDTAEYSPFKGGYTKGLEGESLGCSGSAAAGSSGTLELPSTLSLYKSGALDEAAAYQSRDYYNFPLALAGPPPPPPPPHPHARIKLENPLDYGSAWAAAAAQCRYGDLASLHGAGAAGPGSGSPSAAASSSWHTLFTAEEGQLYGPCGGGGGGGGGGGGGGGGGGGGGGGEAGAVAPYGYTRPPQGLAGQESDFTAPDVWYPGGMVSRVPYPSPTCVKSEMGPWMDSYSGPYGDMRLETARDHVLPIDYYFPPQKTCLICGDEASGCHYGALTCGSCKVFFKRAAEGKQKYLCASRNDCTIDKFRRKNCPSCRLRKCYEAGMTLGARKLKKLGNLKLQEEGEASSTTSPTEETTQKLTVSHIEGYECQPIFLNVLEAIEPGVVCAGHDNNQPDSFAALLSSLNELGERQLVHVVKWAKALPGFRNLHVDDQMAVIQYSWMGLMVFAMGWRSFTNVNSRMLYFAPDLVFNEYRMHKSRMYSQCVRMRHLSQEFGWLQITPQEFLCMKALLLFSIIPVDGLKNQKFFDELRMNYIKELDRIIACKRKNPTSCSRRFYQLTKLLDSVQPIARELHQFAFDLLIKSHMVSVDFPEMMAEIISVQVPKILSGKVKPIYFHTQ
Protocol: Fractions of cell cytosol ([…]) were incubated for 24 hr at 4° C. with 1 nM [^3H]methyltrienolone in the absence or presence of the test compound in a buffer containing 25 mM Hepes-Tris (pH 7.4), 1 mM EDTA, 10 mM Na2MoO4, 2 mM DTT, 5 μM triamcinolone acetonide, and 10% glycerol. Nonspecific binding was determined in the presence of […] testosterone. Following incubation, the samples were filtered rapidly under vacuum through glass fiber filters (GF/B, Packard) presoaked with 0.3% PEI and rinsed several times with ice-cold 50 mM Tris-HCl using a 96-sample cell harvester (Unifilter, Packard). The filters were dried then counted for radioactivity in a scintillation counter (Topcount, Packard) using a scintillation cocktail (Microscint 0, Packard). The results are expressed as a percent inhibition of the control radioligand specific binding. The standard reference compound is testosterone, which is tested in each experiment at several concentrations to obtain a competition curve from which its IC50 is calculated.

Row | Compound | GI50 [1] | GI50 [2] | Kd (androgen receptor)
1 | CCNC(=O)C[C@@H]1N=C(c2ccc(N3CCC(OC4CCN(c5ccc(C(=O)N[C@H]6CC[C@H](Oc7ccc(C#N)c(Cl)c7)CC6)nn5)CC4)CC3)cc2)c2c(sc(C)c2C)-n2c(C)nnc21 [I-44] | < 500 nM | 500 to 1500 nM | < 50 nM
2 | CCNC(=O)C[C@@H]1N=C(c2ccc(OCC3CN(c4ccc(C(=O)N[C@H]5CC[C@H](Oc6ccc(C#N)c(Cl)c6)CC5)nn4)C3)cc2)c2c(sc(C)c2C)-n2c(C)nnc21 [I-29] | < 500 nM | 500 to 1500 nM | < 50 nM
3 | CCNC(=O)C[C@@H]1N=C(c2ccc(CC3CCN(c4ccc(C(=O)N[C@H]5CC[C@H](Oc6ccc(C#N)c(Cl)c6)CC5)nn4)CC3)cc2)c2c(sc(C)c2C)-n2c(C)nnc21 [I-20] | < 500 nM | < 500 nM | < 50 nM
4 | CCNC(=O)C[C@@H]1N=C(c2ccc(OCCOCCOC3CCN(c4ccc(C(=O)N[C@H]5CC[C@H](Oc6ccc(C#N)c(Cl)c6)CC5)nn4)CC3)cc2)c2c(sc(C)c2C)-n2c(C)nnc21 [I-10] | < 500 nM | 500 to 1500 nM | < 50 nM
5 | Cc1sc2c(c1C)C(c1ccc(Cl)cc1)=N[C@@H](CC(=O)NCCOCCOCCOC1CCN(c3ccc(C(=O)N[C@H]4CC[C@H](Oc5ccc(C#N)c(Cl)c5)CC4)nn3)CC1)c1nnc(C)n1-2 [I-2, N-[4-(3-chloro-4-cyano-phenoxy)cyclohexyl]-6-[4-[2-[2-[2-[[2-[(9S)-7-(4-chlorophenyl)-4,5,13-trimethyl-3-thia-1,8,11,12-tetrazatricyclo[8.3.0.0^2,6]trideca-2(6),4,7,10,12-pentaen-9-yl]acetyl]amino]ethoxy]ethoxy]ethoxy]-1-piperidyl]pyridazine-3-carboxamide] | < 500 nM | 500 to 1500 nM | < 50 nM
6 | Cc1sc2c(c1C)C(c1ccc(Cl)cc1)=N[C@@H](CC(=O)NCCOC1CCN(c3ccc(C(=O)N[C@H]4CC[C@H](Oc5ccc(C#N)c(Cl)c5)CC4)nn3)CC1)c1nnc(C)n1-2 [I-1, N-[4-(3-chloro-4-cyano-phenoxy)cyclohexyl]-6-[4-[2-[[2-[(9S)-7-(4-chlorophenyl)-4,5,13-trimethyl-3-thia-1,8,11,12-tetrazatricyclo[8.3.0.0^2,6]trideca-2(6),4,7,10,12-pentaen-9-yl]acetyl]amino]ethoxy]-1-piperidyl]pyridazine-3-carboxamide] | 500 to 1500 nM | 500 to 1500 nM | < 50 nM
7 | CCNC(=O)C[C@@H]1N=C(c2ccc(OCCOC3CCN(c4ccc(C(=O)N[C@H]5CC[C@H](Oc6ccc(C#N)c(Cl)c6)CC5)nn4)CC3)cc2)c2c(sc(C)c2C)-n2c(C)nnc21 [I-8] | < 500 nM | < 500 nM | < 50 nM
8 | CCNC(=O)C[C@@H]1N=C(c2ccc(OCCCN(C)c3ccc(C(=O)N[C@H]4CC[C@H](Oc5ccc(C#N)c(Cl)c5)CC4)nn3)cc2)c2c(sc(C)c2C)-n2c(C)nnc21 [I-48] | < 500 nM | 500 to 1500 nM | < 50 nM
9 | CCNC(=O)C[C@@H]1N=C(c2ccc(N3CC4(C3)CN(c3ccc(C(=O)N[C@H]5CC[C@H](Oc6ccc(C#N)c(Cl)c6)CC5)nn3)C4)cc2)c2c(sc(C)c2C)-n2c(C)nnc21 [I-24] | 500 to 1500 nM | 500 to 1500 nM | < 50 nM
10 | CCNC(=O)C[C@@H]1N=C(c2ccc(CCCOC3CCN(c4ccc(C(=O)N[C@H]5CC[C@H](Oc6ccc(C#N)c(Cl)c6)CC5)nn4)CC3)cc2)c2c(sc(C)c2C)-n2c(C)nnc21 [I-17] | < 500 nM | < 500 nM | 
